Data: patent US20240182596A1, “ANTI-NAPI2B ANTIBODIES AND ANTIBODY-DRUG-CONJUGATES BASED THEREON, THERAPEUTIC METHODS AND USES THEREOF” (Tubulis GmbH, priority 2022, published 2024)

Tested on: OVCAR-3 cells
Test: In vitro inhibition of Topoisomerase-I by delivery of Exatecan via the ADC (DNA-damage markers)
Format: cell-based
Details: 5 μg/mL, 72 h
Experimental: OVCAR-3 cells were treated with 5 μg/mL TUB-040 or 5 nM free Exatecan for 72 h. Cells were stained with Live/Dead stain and for the DNA-damage markers active caspase-3, cleaved PARP and phosphorylated H2A.X (Ser-139) and analyzed by flow cytometry. Graphs show means of n=2±SEM (FIG. 9).

TUB-040
Induction of DNA-damage markers (active caspase-3, cleaved PARP, phosphorylated H2A.X): induces DNA-damage markers
